Several values for one entry are separate records, joined by “and”; a condition that tells them apart may be missing. Equal values may be shown once. Read-outs that look alike come from different tables or passages of the source. Marks after values point to notes of the source that are not given here.
Test: Plasma PK study (IV and PO) in male Sprague-Dawley rats
Format: in vivo, rat
Description: Six male Sprague-Dawley rats (200–350 g) were obtained from Hilltop Labs. Animals were assigned randomly to two groups (IV or PO) of 3 upon arrival. Duration of acclimation was approximately two days. Animals were healthy at the start of the trial.
Animals subjected to IV dosing were fitted with a jugular vein cannula (JVC) under isoflurane anesthesia (induction 4%, maintenance 2.0%, oxygen 1 L/min) and under an external heating source. Post-operative analgesia was provided in the form of 2.5–5 mg/kg of ketoprofen subcutaneously. Benzylpenicillin (60 mg) was given intramuscularly to prevent infection. Sterile 0.9% NaCl was injected subcutaneously under the back skin using a 21G needle during recovery to replace fluid loss. Animals were placed under a heat lamp and monitored until they regained full consciousness. […] Surgically modified animals were housed individually, monitored hourly for the first 4 h and then daily over a 2-day recovery period.
Animals were maintained in a well-controlled temperature (20–24°C) and humidity (30%-70%) environment with 12 h light/dark cycles. Conventional cages with wood chip bedding were used. Animals were identified by a cage label. The study was not blinded. Food was withheld from all animals for a minimum of twelve hours prior to test article administration and returned at approximately 4 h post-dose. Water was supplied ad libitum.
C16 was dosed in cassette with two undisclosed compounds of similar chemical structure. Dosing solutions were prepared in 100% DMSO on the day of dosing. The concentration of C16 was 1 and 5 mg/mL for IV and PO dosing, respectively. C16 was administered at 1 mg/kg IV via JVC or at 10 mg/kg PO.
Sampling took place pre-dose, 5, 15, 30 min, 1, 2, 4, and 8 h post-dose. Blood samples (0.3 mL) were collected via the JVC, placed into chilled tubes containing sodium heparin and kept on ice until centrifugation. Plasma preparation involved centrifugation at a temperature of 2 to 8°C at 3,000 g for 5 min. Plasma samples were stored frozen at -70°C until analysis. No necropsy was performed.
Pharmacokinetic parameters were estimated by a non-compartmental model using WinNonlin (v5.2.1 or higher) software. The maximum plasma/blood concentrations (c0) after IV dosing were estimated by extrapolation of the first two time points back to t = 0. The maximum blood concentration (cmax) and the time to reach maximum blood drug concentration (tmax) after PO dosing were derived from the data. The area under the time-concentration curve (AUC) was calculated using the linear trapezoidal rule with calculation to the last quantifiable data point, and with extrapolation to infinity if applicable. Plasma/blood half-life (t1/2) was calculated from 0.693/slope of the terminal elimination phase. Mean residence time (MRT) was calculated by dividing the area under the moment curve (AUMC) by the AUC. Clearance (CL) was calculated from dose/AUC. Steady-state volume of distribution (Vss) was calculated from CL*MRT. Bioavailability was determined by dividing the individual dose-normalized PO AUC values by the respective average dose-normalized intravenous (IV) AUC value. Samples that were below the limit of quantification were not used in the calculation of averages, and were treated as zero for pharmacokinetic data analysis. […]
(mAU.s) (mAU.s) peak area) (mAU.s) (mAU.s) peak area) (mAU.s) (mAU.s) peak area) […]
a. Dosing solution preparation
The dosing solution was prepared as a cassette to contain all three test articles in the same solution. IV dosing was fixed at 2 mg/mL of C16 and the two other test articles in neat DMSO as the vehicle, with a dosing volume 0.5 mL/kg (slow injection). PO dosing was set at 10 mg/mL of C16 and the two other test articles in neat DMSO as the vehicle, with a dosing volume of 1 mL/kg.
Individual plasma concentrations for C16 are shown in Table F and Table G. All data are expressed as ng/mL of the […]
free drug. […]

[1] = male, Sprague-Dawley, rat, plasma, iv, 1 mg/kg, male Sprague-Dawley rat, IV 1 mg/kg, vehicle DMSO, average
[2] = male, Sprague-Dawley, rat, plasma, iv, 1 mg/kg, rat plasma, IV 1 mg/kg, individual animals 1-3
[3] = male, Sprague-Dawley, rat, plasma, po, 10 mg/kg, male Sprague-Dawley rat, PO 10 mg/kg, vehicle DMSO, average
[4] = male, Sprague-Dawley, rat, plasma, po, 10 mg/kg, male Sprague-Dawley rat, PO 10 mg/kg, vehicle DMSO, calculated for two out of three animals
[5] = plasma, male Sprague-Dawley rat, IV 1 mg/kg, vehicle DMSO, average
[6] = rat plasma, IV 1 mg/kg, individual animals 1-3, 1 mg/kg
[7] = rat plasma, PO 10 mg/kg, individual animals 4-6, 10 mg/kg
[8] = rat plasma, PO 10 mg/kg, individual animals 5-6, 10 mg/kg

## COc1cc(C(=O)/C=C/c2ccc(F)cc2)cc(OC)c1OC [C16, 4-fluoro-3’,4’,5’-trimethoxychalcone]
[1]
  AUC(0-inf): 215 ng·h/mL
  AUC(0-t): 211 ng·h/mL
  MRT last: 0.76 h
  clearance: 82.5 mL/min/kg
  half-life: 1.93 h
male, Sprague-Dawley, rat, plasma, iv, 1 mg/kg, male Sprague-Dawley rat, IV 1 mg/kg, vehicle DMSO, average, extrapolated to t = 0
  C0: 1260 ng/mL
male, Sprague-Dawley, rat, plasma, iv, 1 mg/kg, plasma, male Sprague-Dawley rat, IV 1 mg/kg, vehicle DMSO, average, read-out: Vss
  Vd: 4.77 L/kg
male, Sprague-Dawley, rat, plasma, iv, 1 mg/kg, plasma, male Sprague-Dawley rat, IV 1 mg/kg, vehicle DMSO, average, read-out: tmax
  Tmax: 0 h
[2]
  AUC(0-inf): 227 ng·h/mL
  AUC(0-t): 224 ng·h/mL
  MRT last: 0.7 h
  clearance: 73.3 mL/min/kg
  half-life: 1.8 h
male, Sprague-Dawley, rat, plasma, iv, 1 mg/kg, rat plasma, IV 1 mg/kg, individual animals 1-3, read-out: tmax
  Tmax: 0 h
male, Sprague-Dawley, rat, plasma, iv, 1 mg/kg, rat, IV 1 mg/kg, 0.50 h, animals 1-3, read-out: Individual plasma concentration
  concentration at 0.5 h: 32.4 ng/mL
male, Sprague-Dawley, rat, plasma, iv, 1 mg/kg, rat, IV 1 mg/kg, 1.0 h, animals 1-3, read-out: Individual plasma concentration
  concentration at 1 h: 23.1 ng/mL
male, Sprague-Dawley, rat, plasma, iv, 1 mg/kg, rat, IV 1 mg/kg, 2.0 h, animals 1-3, read-out: Individual plasma concentration
  concentration at 2 h: 14.3 ng/mL
male, Sprague-Dawley, rat, plasma, iv, 1 mg/kg, rat, IV 1 mg/kg, 4.0 h, animals 1-3, read-out: Individual plasma concentration
  concentration at 4 h: 4.94 ng/mL
male, Sprague-Dawley, rat, plasma, iv, 1 mg/kg, rat, IV 1 mg/kg, 8.0 h, animals 1-3, read-out: Individual plasma concentration
  concentration at 8 h: 1.34 ng/mL
[3]
  AUC(0-t): 146 ng·h/mL
  MRT last: 3.67 h
[4]
  AUC(0-inf): 161 ng·h/mL
  half-life: 3.67 h
male, Sprague-Dawley, rat, plasma, po, 10 mg/kg, plasma, male Sprague-Dawley rat, PO 10 mg/kg, vehicle DMSO, average, read-out: Bioavailability
  Bioavailability: 6.91%
male, Sprague-Dawley, rat, plasma, po, 10 mg/kg, plasma, male Sprague-Dawley rat, PO 10 mg/kg, vehicle DMSO, average, read-out: cmax
  cmax: 32.2 ng/mL
male, Sprague-Dawley, rat, plasma, po, 10 mg/kg, plasma, male Sprague-Dawley rat, PO 10 mg/kg, vehicle DMSO, average, read-out: tmax
  Tmax: 2.83 h
male, Sprague-Dawley, rat, plasma, po, 10 mg/kg, rat plasma, PO 10 mg/kg, individual animals 4-6
  MRT last: 4.92 h
male, Sprague-Dawley, rat, plasma, po, 10 mg/kg, rat, PO 10 mg/kg, 0.50 h, animals 4-6, read-out: Individual plasma concentration
  concentration at 0.5 h: 22.5 ng/mL
male, Sprague-Dawley, rat, plasma, po, 10 mg/kg, rat, PO 10 mg/kg, 2.0 h, animals 4-6, read-out: Individual plasma concentration
  concentration at 2 h: 15.1 ng/mL
[5]
  Dose-normalized AUClast: 211 kg·ng·h/mL/mg
  Dose-normalized AUC∞: 215 kg·ng·h/mL/mg
plasma, male Sprague-Dawley rat, PO 10 mg/kg, vehicle DMSO, average
  Dose-normalized AUClast: 14.6 kg·ng·h/mL/mg
plasma, male Sprague-Dawley rat, PO 10 mg/kg, vehicle DMSO, calculated for two out of three animals
  Dose-normalized AUC∞: 16.1 ^f h∙kg ng/mL/mg
[6]
  AUClast: 145 ng·h/mL and 264 ng·h/mL
  AUC∞: 149 ng·h/mL and 269 ng·h/mL
  CL: 112 mL/min/kg and 62 mL/min/kg
  MRTlast: 0.87 h and 0.71 h
  Vss: 3.73 L/kg and 7.30 L/kg and 3.27 L/kg
  c0: 1718 ng/mL and 659 ng/mL and 1395 ng/mL
  t1/2: 2.00 h
[7]
  AUClast: 236 ng·h/mL and 88.0 ng·h/mL and 114 ng·h/mL
  Bioavailability: 11.2% and 4.17% and 5.39%
  Dose Normalized AUClast: 23.6 kg·ng·h/mL/mg and 8.80 kg·ng·h/mL/mg and 11.4 kg·ng·h/mL/mg
  MRTlast: 3.60 h and 2.48 h
  Tmax: 8.00 h
  cmax: 47.1 ng/mL and 15.9 ng/mL and 33.5 ng/mL
[8]
  AUC∞: 219 ng·h/mL
  Dose Normalized AUC∞: 10.2 kg·ng·h/mL/mg and 21.9 kg·ng·h/mL/mg
  t1/2: 11.0 h
rat, 1 mg/kg IV and 10 mg/kg PO, cassette in 100% DMSO
  Adverse effects after intravenous and oral administration: No adverse effects were observed
rat, IV 1 mg/kg, 0.083 h, animals 1-3, 1 mg/kg
  Individual plasma concentration: 568 ng/mL and 345 ng/mL and 693 ng/mL
rat, IV 1 mg/kg, 0.25 h, animals 1-3, 1 mg/kg
  Individual plasma concentration: 62.1 ng/mL and 94.6 ng/mL and 171 ng/mL
rat, IV 1 mg/kg, 0.50 h, animals 1-3, 1 mg/kg
  Individual plasma concentration: 31.9 ng/mL and 63.2 ng/mL
rat, IV 1 mg/kg, 1.0 h, animals 1-3, 1 mg/kg
  Individual plasma concentration: 19.1 ng/mL and 25.4 ng/mL
rat, IV 1 mg/kg, 2.0 h, animals 1-3, 1 mg/kg
  Individual plasma concentration: 8.99 ng/mL and 12.6 ng/mL
rat, IV 1 mg/kg, 4.0 h, animals 1-3, 1 mg/kg
  Individual plasma concentration: 4.34 ng/mL and 6.41 ng/mL
rat, IV 1 mg/kg, 8.0 h, animals 1-3, 1 mg/kg
  Individual plasma concentration: 1.12 ng/mL and 1.58 ng/mL
rat, PO 10 mg/kg, 0.25 h, animals 4-6, 10 mg/kg
  Individual plasma concentration: 21.8 ng/mL and 15.9 ng/mL and 33.5 ng/mL
rat, PO 10 mg/kg, 0.50 h, animals 4-6, 10 mg/kg
  Individual plasma concentration: 14.8 ng/mL and 24.0 ng/mL
rat, PO 10 mg/kg, 1.0 h, animals 4-6, 10 mg/kg
  Individual plasma concentration: 28.3 ng/mL and 13.6 ng/mL and 22.0 ng/mL
rat, PO 10 mg/kg, 2.0 h, animals 4-6, 10 mg/kg
  Individual plasma concentration: 11.4 ng/mL and 18.2 ng/mL
rat, PO 10 mg/kg, 4.0 h, animals 4-6, 10 mg/kg
  Individual plasma concentration: 27.9 ng/mL and 11.7 ng/mL and 13.6 ng/mL
rat, PO 10 mg/kg, 8.0 h, animals 4-6, 10 mg/kg
  Individual plasma concentration: 47.1 ng/mL and 8.04 ng/mL and 5.96 ng/mL
